{"source": "patent US4393055A", "about": "“Hydroxyalkyl ether derivatives of rutin poly(H-)sulfate and method of use” (American Cyanamid Company, priority 1982, dated 1983)", "key": {"activated human C1": {"target": "activated human C1 (Homo sapiens, UniProt P09871)", "sequence (P09871 16-437 limits assumed)": "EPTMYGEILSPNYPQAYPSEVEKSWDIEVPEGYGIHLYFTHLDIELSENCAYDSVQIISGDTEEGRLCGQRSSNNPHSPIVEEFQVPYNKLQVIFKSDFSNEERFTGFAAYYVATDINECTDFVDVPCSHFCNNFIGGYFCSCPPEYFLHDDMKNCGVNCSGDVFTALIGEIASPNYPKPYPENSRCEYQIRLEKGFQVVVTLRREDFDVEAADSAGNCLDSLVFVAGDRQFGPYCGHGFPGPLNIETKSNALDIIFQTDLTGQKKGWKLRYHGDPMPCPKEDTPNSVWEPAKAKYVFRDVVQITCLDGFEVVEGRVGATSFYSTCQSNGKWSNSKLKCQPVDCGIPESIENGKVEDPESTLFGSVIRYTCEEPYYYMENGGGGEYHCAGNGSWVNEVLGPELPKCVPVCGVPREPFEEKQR", "sequence (P09871 438-688 limits assumed)": "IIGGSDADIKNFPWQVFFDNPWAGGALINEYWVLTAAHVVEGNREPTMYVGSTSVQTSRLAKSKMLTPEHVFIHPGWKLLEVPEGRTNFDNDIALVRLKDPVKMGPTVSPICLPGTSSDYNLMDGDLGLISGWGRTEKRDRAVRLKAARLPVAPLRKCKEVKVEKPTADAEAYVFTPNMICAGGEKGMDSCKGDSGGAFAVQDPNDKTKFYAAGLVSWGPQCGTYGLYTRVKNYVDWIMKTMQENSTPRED", "sequence (P00736 18-463 partner limits assumed)": "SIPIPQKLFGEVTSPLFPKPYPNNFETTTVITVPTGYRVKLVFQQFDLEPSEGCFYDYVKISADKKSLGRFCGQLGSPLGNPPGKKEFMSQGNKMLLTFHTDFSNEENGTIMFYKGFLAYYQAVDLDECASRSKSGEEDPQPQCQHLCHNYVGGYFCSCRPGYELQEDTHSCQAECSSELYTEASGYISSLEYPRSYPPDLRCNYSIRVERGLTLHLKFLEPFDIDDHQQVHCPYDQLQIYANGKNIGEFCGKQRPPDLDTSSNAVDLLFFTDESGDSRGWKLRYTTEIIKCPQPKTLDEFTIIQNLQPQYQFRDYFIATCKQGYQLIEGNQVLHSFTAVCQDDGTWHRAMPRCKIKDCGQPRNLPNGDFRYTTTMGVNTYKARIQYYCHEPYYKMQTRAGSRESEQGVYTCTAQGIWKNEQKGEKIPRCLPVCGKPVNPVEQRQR", "sequence (P00736 464-705 partner limits assumed)": "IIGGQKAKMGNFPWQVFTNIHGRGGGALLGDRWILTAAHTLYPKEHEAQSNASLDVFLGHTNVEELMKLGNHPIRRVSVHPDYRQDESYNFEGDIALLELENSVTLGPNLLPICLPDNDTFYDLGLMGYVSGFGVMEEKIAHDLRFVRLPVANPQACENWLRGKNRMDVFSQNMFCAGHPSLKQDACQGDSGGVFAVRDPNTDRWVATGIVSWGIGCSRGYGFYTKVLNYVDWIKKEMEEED", "assay": "Test Code 026 (C1 inhibitor)", "assay_type": "biochemical", "conditions": "twofold serial dilutions; higher well number indicates higher activity", "experimental": "(§1) An active inhibitor protects C2 from C1 and C4; (ii) Cap 50 Test--Here, appropriate amounts of the test compound are added to a pool of guinea pig serum in vitro, after which the undiluted serum capillary tube assay referred to above is run. The concentration of compound inhibiting 50% is reported; and (iii) Guinea Pig Intraperitoneal Test (GPIP)--Guinea pigs weighing about 300 g. are dosed intraperitoneally (i.p.) with 200 mg./kg. of the test compound dissolved in saline and adjusted to pH 7-8. Approximately 0.4 ml. blood samples, taken by orbital sinus puncture 30 minutes and one hour after injections, are collected directly into centrifuge tubes; 5 ml. blood samples, taken by decapitation 2 hours after injection are collected directly into beakers. The samples are allowed to clot, centrifuged, and the resultant sera are assayed for complement activity using the capillary complement assay. Percent inhibition are calculated by comparison with simultaneous controls."}, "[1]": {"tested_on": "complement activity of sera", "assay": "Guinea Pig Intraperitoneal Test (GPIP)", "assay_type": "in vivo", "conditions": "200 mg./kg. i.p.", "experimental": "as §1, with “[…],” for “taken by orbital sinus puncture 30 minutes and one hour after injections,”, “taken by decapitation 2 hours after injection are collected directly into” left out"}, "[2]": {"tested_on": "total hemolytic complement activity", "conditions": "in vitro and in vivo; judged by reduction in total hemolytic complement activity; cited from earlier work"}}, "note": "Where “and” joins values, the source holds several entries; their conditions need not be identical. Equal entries are not always repeated. Structures can show the parent of a compound that is named as a salt."}
{"compound": "C[C@@H]1O[C@@H](OC[C@H]2O[C@@H](Oc3c(-c4ccc(OS(=O)(=O)O)c(OS(=O)(=O)O)c4)oc4cc(OCCOS(=O)(=O)O)cc(O)c4c3=O)[C@H](OS(=O)(=O)O)[C@@H](OS(=O)(=O)O)[C@@H]2OS(=O)(=O)O)[C@H](OS(=O)(=O)O)[C@H](OS(=O)(=O)O)[C@H]1OS(=O)(=O)O", "note": "[7-(2-hydroxyethyl)rutin, nona(H-sulfate)sodium salt]", "values": [{"measurement": "In vitro Activity 026 (activity in wells, serial dilution assay)", "setting": "activated human C1", "value": "9-12 wells"}, {"measurement": "In vivo Activity (Guinea Pig) Intraperitoneal % Inhibition", "setting": "[1]; Time (hours) 4", "value": 86, "unit": "%"}, {"measurement": "In vivo Activity (Guinea Pig) Intraperitoneal % Inhibition", "setting": "[1]; Time (hours) 6", "value": 71, "unit": "%"}, {"measurement": "In vivo Activity (Guinea Pig) Intraperitoneal % Inhibition", "setting": "[1]; Time (hours) 24", "value": 35, "unit": "%"}]}
{"compound": "C[C@@H]1O[C@@H](OC[C@H]2O[C@@H](Oc3c(-c4ccc(OCCOS(=O)(=O)O)c(OCCOS(=O)(=O)O)c4)oc4cc(OCCOS(=O)(=O)O)cc(OS(=O)(=O)O)c4c3=O)[C@H](OS(=O)(=O)O)[C@@H](OS(=O)(=O)O)[C@@H]2OS(=O)(=O)O)[C@H](OS(=O)(=O)O)[C@H](OS(=O)(=O)O)[C@H]1OS(=O)(=O)O", "note": "[3',4',7-Tris(2-hydroxyethyl)rutin, deca(H-sulfate)sodium salt]", "values": [{"measurement": "In vitro Activity 026 (activity in wells, serial dilution assay)", "setting": "activated human C1", "value": "7-10 wells"}, {"measurement": "In vivo Activity (Guinea Pig) Intraperitoneal % Inhibition", "setting": "[1]; Time (hours) 6", "value": "48% and 82%"}]}
{"compound": "pentosanpolysulfoester", "values": [{"measurement": "anticomplementary activity on human serum", "setting": "[2]", "value": "has an anticomplementary activity on human serum, both in vitro and in vivo"}]}
{"compound": "C[C@@H]1O[C@@H](OC[C@H]2O[C@@H](Oc3c(-c4ccc(OS(=O)(=O)O)c(OS(=O)(=O)O)c4)oc4cc(OCCOS(=O)(=O)O)cc(OS(=O)(=O)O)c4c3=O)[C@H](OS(=O)(=O)O)[C@@H](OS(=O)(=O)O)[C@@H]2OS(=O)(=O)O)[C@H](OS(=O)(=O)O)[C@H](OS(=O)(=O)O)[C@H]1OS(=O)(=O)O", "note": "[7-(2-hydroxyethyl)rutin, deca(H-sulfate)sodium salt]", "values": [{"measurement": "In vitro Activity 026 (activity in wells, serial dilution assay)", "setting": "activated human C1", "value": "6-12 wells"}, {"measurement": "In vivo Activity (Guinea Pig) Intraperitoneal % Inhibition", "setting": "[1]; Time (hours) 4", "value": 88, "unit": "%"}, {"measurement": "In vivo Activity (Guinea Pig) Intraperitoneal % Inhibition", "setting": "[1]; Time (hours) 6", "value": 71, "unit": "%"}, {"measurement": "In vivo Activity (Guinea Pig) Intraperitoneal % Inhibition", "setting": "[1]; Time (hours) 24", "value": 20, "unit": "%"}]}
